Source: ChEMBL document CHEMBL5370672, “Discovery of Orally Bioavailable Phthalazinone Analogues as an ENPP1 Inhibitor for STING-Mediated Cancer Immunotherapy” (J Med Chem, 2023)
pIC50: −log10 of the molar value. The source made the active and inactive calls. The rule behind the calls is not given here.

Columns and labels:
[1] = Half-life in BALB/c mouse at 20 mg/kg, po measured after 24 hrs by LC-MS/MS analysis; assay type: ADME, organism-based; details: in vivo
[2] = Cmax in BALB/c mouse at 20 mg/kg, po measured after 24 hrs by LC-MS/MS analysis; assay type: ADME, organism-based; set-up: dose 20 mg/kg, time 24 hrs, route po; details: in vivo
[3] = AUC (0 to t) in BALB/c mouse at 20 mg/kg, po measured after 24 hrs by LC-MS/MS analysis; assay type: ADME, organism-based; set-up: time 24 hrs, dose 20 mg/kg, route po; details: in vivo
[4] = AUC (0 to infinity) in BALB/c mouse at 20 mg/kg, po measured after 24 hrs by LC-MS/MS analysis; assay type: ADME, organism-based; set-up: time 24 hrs, dose 20 mg/kg, route po; details: in vivo
[5] = MRT (0 to t) in BALB/c mouse at 20 mg/kg, po measured after 24 hrs by LC-MS/MS analysis; assay type: ADME, organism-based; details: in vivo
[6] = MRT (0 to infinity) in BALB/c mouse at 20 mg/kg, po measured after 24 hrs by LC-MS/MS analysis; assay type: ADME, organism-based; details: in vivo
[7] = Cmax in BALB/c mouse at 5 mg/kg, iv measured after 24 hrs by LC-MS/MS analysis; assay type: ADME, organism-based; set-up: dose 5 mg/kg, time 24 hrs, route iv; details: in vivo
[8] = AUC (0 to infinity) in BALB/c mouse at 5 mg/kg, iv measured after 24 hrs by LC-MS/MS analysis; assay type: ADME, organism-based; set-up: dose 5 mg/kg, time 24 hrs, route iv; details: in vivo
[9] = MRT (0 to infinity) in BALB/c mouse at 5 mg/kg, iv measured after 24 hrs by LC-MS/MS analysis; assay type: ADME, organism-based; details: in vivo
[10] = Volume of distribution at steady state in BALB/c mouse at 5 mg/kg, iv measured after 24 hrs by LC-MS/MS analysis; assay type: ADME, organism-based; details: in vivo, read-out: Vdss
[11] = Protein binding in human plasma assessed as unbound fraction by equilibrium dialysis based LC-MS/MS analysis; assay type: ADME, cell-free
[12] = Metabolic stability in human liver microsome assessed as intrinsic clearance by LC/MS analysis; assay type: ADME; details: liver microsomes, read-out: CLH
[13] = Metabolic stability in human liver microsome assessed as parent compound remaining measured after 30 mins by LC/MS analysis; assay type: ADME; details: liver microsomes, read-out: Stability
[14] = Metabolic stability in mouse liver microsome assessed as half-life by LC/MS analysis; assay type: ADME; details: liver microsomes
[15] = Metabolic stability in mouse liver microsome assessed as intrinsic clearance by LC/MS analysis; assay type: ADME; details: liver microsomes, read-out: CLH
[16] = Metabolic stability in mouse liver microsome assessed as parent compound remaining measured after 30 mins by LC/MS analysis; assay type: ADME; details: liver microsomes, read-out: Stability
Cytochrome P450 1A2 = target: T1, Cytochrome P450 1A2 (Homo sapiens, UniProt P05177); experiment: Inhibition of CYP1A2 in human liver microsomes; assay type: ADME, Microsome
T1 sequence (P05177 whole entry): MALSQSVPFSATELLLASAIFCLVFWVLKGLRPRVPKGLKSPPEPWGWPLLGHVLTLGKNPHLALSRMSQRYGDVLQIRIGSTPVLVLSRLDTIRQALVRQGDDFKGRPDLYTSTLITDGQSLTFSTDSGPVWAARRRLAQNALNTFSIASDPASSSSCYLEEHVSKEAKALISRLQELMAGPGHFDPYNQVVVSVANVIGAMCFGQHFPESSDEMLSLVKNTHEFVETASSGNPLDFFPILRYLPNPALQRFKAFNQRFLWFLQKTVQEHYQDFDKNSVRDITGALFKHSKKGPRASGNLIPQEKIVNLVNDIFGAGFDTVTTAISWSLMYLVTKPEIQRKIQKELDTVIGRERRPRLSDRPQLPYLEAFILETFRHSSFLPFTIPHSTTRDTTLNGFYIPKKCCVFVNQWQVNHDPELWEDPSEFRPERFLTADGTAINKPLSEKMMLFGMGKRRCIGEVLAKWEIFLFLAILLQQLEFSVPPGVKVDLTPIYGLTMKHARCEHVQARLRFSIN

Cytochrome P450 2C9 = Cytochrome P450 2C9 (Homo sapiens, UniProt P11712); experiment: Inhibition of CYP2C9 in human liver microsomes; assay type: ADME, Microsome
Cytochrome P450 2C19 = Cytochrome P450 2C19 (Homo sapiens, UniProt P33261); experiment: Inhibition of CYP2C19 in human liver microsomes; assay type: ADME, Microsome
Cytochrome P450 2D6 = Cytochrome P450 2D6 (Homo sapiens, UniProt P10635); experiment: Inhibition of CYP2D6 in human liver microsomes; assay type: ADME, Microsome
[17] = target: Stimulator of interferon genes protein (Homo sapiens) (UniProt Q86WV6); experiment: Activation of STING-mediated immune response in human HCT-116 cells transfected with ISRE reporter assessed as increase in cGAMP-induced ISRE activation by measuring fold change at 25 to 100 uM preincubated with compound for 1 hrs followed by cGAMP addition and measured after 48 hrs by luciferase reporter gene assay; assay type: cell-based; details: filed as activator, dose 25-100 µM, time 49.0 hrs
HCT-116 = experiment: Cytotoxicity against human HCT-116 cells assessed as reduction in cell viability upto 200 uM incubated for 48 hrs in the presence of cGAMP by celltiter 96 aqueous one solution cell proliferation assay; assay type: functional, cell-based
[18] = target: Stimulator of interferon genes protein (Homo sapiens) (UniProt Q86WV6); experiment: Activation of STING-mediated immune response in STING knockout human THP-1 cells transfected with ISRE reporter assessed as increase in cGAMP-induced ISRE activation upto 50 uM preincubated with compound for 1 hrs followed by cGAMP addition and measured after 24 hrs by luciferase reporter gene assay; assay type: cell-based; details: time 25.0 hrs
CT26 [19] = experiment: Antitumor activity against mouse CT26 cells implanted in BALB/c mouse assessed as tumor growth inhibition at 200 mg/kg, po administered for 2 weeks and measured on day 15 relative to control; assay type: functional; details: CT26, 360 h, time 15 day, read-out: TGI
[20] = Toxicity in BALB/c mouse implanted with mouse CT26 cells assessed as effect on body weight at 200 mg/kg, po administered for 2 weeks and measured on day 15; assay type: organism-based; details: in vivo, 360 h, time 15 day
[21] = Toxicity in BALB/c mouse implanted with mouse CT26 cells assessed as effect on body weight at 200 mg/kg, po administered for 2 weeks and measured on day 15 in the presence of anti-PD-L1 antibody; assay type: organism-based; details: in vivo, 360 h, time 15 day
CT26 [22] = experiment: Immunological memory derived antitumor activity against mouse CT26 cells implanted in BALB/c mouse assessed as tumor growth regression at 200 mg/kg, po preadministered with compound for 2 weeks followed by reinoculation of CT26 cells and measured on day 19 relative to control; assay type: functional; details: time 19 day
[23] = Toxicity in BALB/c mouse implanted with mouse CT26 cells assessed as effect on body weight at 200 mg/kg, po preadministered with compound for 2 weeks followed by reinoculation of CT26 cells and measured on day 19 in the presence of anti-PD-L1 antibody; assay type: organism-based; details: in vivo, 456 h, time 19 day

Chain of Stimulator of interferon genes protein (Homo sapiens) (Q86WV6 whole entry): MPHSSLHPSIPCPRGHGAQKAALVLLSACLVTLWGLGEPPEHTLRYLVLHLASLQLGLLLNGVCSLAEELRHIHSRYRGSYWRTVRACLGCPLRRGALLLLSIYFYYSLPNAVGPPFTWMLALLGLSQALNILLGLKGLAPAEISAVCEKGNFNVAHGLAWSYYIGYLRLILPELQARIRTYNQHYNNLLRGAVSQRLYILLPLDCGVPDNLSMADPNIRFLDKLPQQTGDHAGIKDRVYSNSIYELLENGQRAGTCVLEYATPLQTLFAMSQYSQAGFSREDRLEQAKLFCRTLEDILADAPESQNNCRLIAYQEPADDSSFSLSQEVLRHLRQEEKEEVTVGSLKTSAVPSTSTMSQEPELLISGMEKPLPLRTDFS
Chain of Cytochrome P450 2C9 (P11712 whole entry): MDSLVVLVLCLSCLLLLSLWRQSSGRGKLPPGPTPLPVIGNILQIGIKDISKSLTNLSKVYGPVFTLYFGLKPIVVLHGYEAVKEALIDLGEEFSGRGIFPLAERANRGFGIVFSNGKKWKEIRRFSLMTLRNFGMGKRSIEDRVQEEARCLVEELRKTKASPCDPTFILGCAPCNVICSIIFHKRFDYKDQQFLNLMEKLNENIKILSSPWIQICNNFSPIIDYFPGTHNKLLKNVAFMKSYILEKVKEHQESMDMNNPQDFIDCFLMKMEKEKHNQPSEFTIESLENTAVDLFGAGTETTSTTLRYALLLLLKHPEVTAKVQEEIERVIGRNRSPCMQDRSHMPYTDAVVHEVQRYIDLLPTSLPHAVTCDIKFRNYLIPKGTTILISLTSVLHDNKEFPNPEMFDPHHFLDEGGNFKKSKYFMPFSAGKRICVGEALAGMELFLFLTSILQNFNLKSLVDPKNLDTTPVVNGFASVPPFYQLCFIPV
Chain of Cytochrome P450 2D6 (P10635 whole entry): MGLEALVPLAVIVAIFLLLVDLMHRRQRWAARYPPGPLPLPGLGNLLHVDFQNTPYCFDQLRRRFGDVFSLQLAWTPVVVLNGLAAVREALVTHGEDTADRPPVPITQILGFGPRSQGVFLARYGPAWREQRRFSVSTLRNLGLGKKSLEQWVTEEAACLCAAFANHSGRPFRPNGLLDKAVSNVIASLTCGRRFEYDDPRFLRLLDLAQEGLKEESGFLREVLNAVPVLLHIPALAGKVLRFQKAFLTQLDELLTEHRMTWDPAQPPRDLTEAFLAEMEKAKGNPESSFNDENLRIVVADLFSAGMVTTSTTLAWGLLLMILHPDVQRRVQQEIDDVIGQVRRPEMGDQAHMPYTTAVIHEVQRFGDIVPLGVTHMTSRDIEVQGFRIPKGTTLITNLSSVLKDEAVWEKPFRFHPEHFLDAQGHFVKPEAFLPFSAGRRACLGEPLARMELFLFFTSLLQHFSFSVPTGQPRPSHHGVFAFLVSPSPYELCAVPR
Chain of Cytochrome P450 2C19 (P33261 whole entry): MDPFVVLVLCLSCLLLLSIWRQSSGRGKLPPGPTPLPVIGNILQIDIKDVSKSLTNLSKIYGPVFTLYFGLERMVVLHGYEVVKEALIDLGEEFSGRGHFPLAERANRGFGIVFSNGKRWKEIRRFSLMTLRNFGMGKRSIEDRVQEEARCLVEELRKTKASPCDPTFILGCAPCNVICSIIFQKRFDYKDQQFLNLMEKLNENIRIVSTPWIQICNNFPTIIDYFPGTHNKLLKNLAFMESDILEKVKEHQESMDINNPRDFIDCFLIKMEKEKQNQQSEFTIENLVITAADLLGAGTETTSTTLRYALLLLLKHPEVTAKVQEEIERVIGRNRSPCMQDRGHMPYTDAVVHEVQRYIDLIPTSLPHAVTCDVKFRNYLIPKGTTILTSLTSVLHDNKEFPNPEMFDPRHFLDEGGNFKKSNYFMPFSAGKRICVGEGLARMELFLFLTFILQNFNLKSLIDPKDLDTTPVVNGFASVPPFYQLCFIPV

In the case of `Cn1nc(Cc2ccc(NS(N)(=O)=O)cc2)c2ccccc2c1=O`, the half-life [1] was 2.8 h, the Cmax [2] was 12700 ng/mL and the AUC(0-t) at 24 h [3] was 79400 ng·h/mL. It also gave an AUC(0-inf) [4] of 79600 ng·h/mL, an MRT last at 24 h [5] of 3.75 h and an MRT inf [6] of 3.81 h. The Cmax [7] was 9540 ng/mL, the AUC(0-inf) [8] was 30900 ng·h/mL and the MRT inf [9] was 3.21 h. The Vd [10] was 0.51 L/kg, the fraction unbound [11] was 0.18 and the CLint scaled [12] was less than 14.5 mL/min/kg. It also gave a remaining at 0.5 h [13] of 87%, a half-life [14] of 0.987 h and a CLint scaled [15] of 92.1 mL/min/kg. The remaining at 0.5 h [16] was 65%, the pIC50 (Cytochrome P450 1A2) was less than 5.00 and the pIC50 (Cytochrome P450 2C9) was less than 5.00. It also gave a pIC50 (Cytochrome P450 2C19) of less than 5.00, a pIC50 (Cytochrome P450 2D6) of less than 5.00 and a fold change (FC) [17] of 3.63. For the same compound, the Activity (HCT-116) was “Not toxic”, the Activity [18] was “inactive” and the inhibition in vivo at 200 mg/kg (CT26 [19]) was 55%. For the same compound, the Activity [20] was “Non-Toxic”, the Activity [21] was “Non-Toxic” and the Activity (CT26 [22]) was 100%. For the same compound, the Activity [23] was “Non-Toxic”.
